Publication PMC7822874, “Chemoprotective antimalarials identified through quantitative high-throughput screening of Plasmodium blood and liver stage parasites” (Scientific Reports, 2021)
Where “and” joins values, the source holds several entries; their conditions need not be identical. Equal entries are not always repeated. Where two headings read alike, the source gives them in different places.

Assays:
HepG2-A16-CD81EGFP cells = conditions: for HepG2 1uM growth rep1 / HepG2 1uM growth rep2: HepG2, 1 µM compound treatment (10 mM stocks); for HepG2 1uM growth rep1 / HepG2 3uM growth rep1: replicate 1, normalized; for HepG2 1uM growth rep2 / HepG2 3uM growth rep2: replicate 2, normalized; for HepG2 3uM growth rep1 / HepG2 3uM growth rep2: HepG2, 3 µM compound treatment (10 mM stocks)
HepG2 = conditions: human, hepg2 cells, 48 h
in vitro [1] = conditions: human, hepg2 cells
[2] = tested on: Plasmodium falciparum Dd2 asexual blood stage parasites; test: microbe, parasite or virus in culture; design: species or system Plasmodium falciparum Dd2 in human erythrocytes; single determination (one 11-point concentration-response curve); conditions: Plasmodium falciparum, DD2, Erythrocyte, 72 h; read-out: AC50
[3] = tested on: P. berghei-ANKA-GFP-LucCON liver stage parasites in HepG2-A16-CD81EGFP cells; test: P. berghei liver stage Pb-Luc assay, Method 1 (UCSD, 1536-well); assay type: cell-based, Plasmodium berghei; conditions: Plasmodium berghei, 48 h
in vitro [4] = conditions: human
[5] = nominal 1 uM (10 mM stock), […] for 15 mM, 1.2 uM for 12 mM, 2 uM for 20 mM stock, average of 2 wells, repeat 2
[6] = nominal 3 uM (10 mM stock), 4.5 uM for 15 mM, 3.6 uM for 12 mM, 6 uM for 20 mM stock, average of 2 wells, repeat 2
[7] = nominal 1 uM (10 mM stock), […] for 15 mM, 1.2 uM for 12 mM, 2 uM for 20 mM stock, average of 2 wells, 1536-well plate, repeat 1, read-out: Pb-Luc signal, 1 uM, repeat 1
[8] = nominal 1 uM (10 mM stock), […] for 15 mM, 1.2 uM for 12 mM, 2 uM for 20 mM stock, average of 2 wells, 1536-well plate, repeat 2, read-out: Pb-Luc signal, 1 uM, repeat 2
[9] = nominal 1 uM (10 mM stock), […] for 15 mM, 1.2 uM for 12 mM, 2 uM for 20 mM stock, average of 2 wells, 1536-well plate, repeat 3, read-out: Pb-Luc signal, 1 uM, repeat 3
[10] = nominal 3 uM (10 mM stock), 4.5 uM for 15 mM, 3.6 uM for 12 mM, 6 uM for 20 mM stock, average of 2 wells, 1536-well plate, repeat 1, read-out: Pb-Luc signal, 3 uM, repeat 1
[11] = nominal 3 uM (10 mM stock), 4.5 uM for 15 mM, 3.6 uM for 12 mM, 6 uM for 20 mM stock, average of 2 wells, 1536-well plate, repeat 2, read-out: Pb-Luc signal, 3 uM, repeat 2
[12] = nominal 3 uM (10 mM stock), 4.5 uM for 15 mM, 3.6 uM for 12 mM, 6 uM for 20 mM stock, average of 2 wells, 1536-well plate, repeat 3, read-out: Pb-Luc signal, 3 uM, repeat 3
[13] = HepG2-A16-CD81EGFP cells, uninfected
[14] = P. berghei liver stage, 1 µM compound treatment (10 mM stocks), replicate 1, normalized, average of 2 wells on a 1536 well plate, read-out: PbLuc 1uM growth rep1
[15] = P. berghei liver stage, 1 µM compound treatment (10 mM stocks), replicate 2, normalized, average of 2 wells on a 1536 well plate, read-out: PbLuc 1uM growth rep2
[16] = P. berghei liver stage, 3 µM compound treatment (10 mM stocks), replicate 1, normalized, average of 2 wells on a 1536 well plate, read-out: PbLuc 3uM growth rep1
[17] = P. berghei liver stage, 3 µM compound treatment (10 mM stocks), replicate 2, normalized, average of 2 wells on a 1536 well plate, read-out: PbLuc 3uM growth rep2

Row | Compound | HepG2 viability signal, 1 uM, repeat 2 (HepG2-A16-CD81EGFP cells; [5]) | Log AC50 (M) (HepG2) | CC50 at 48 h (in vitro [1]) | AC50 [2] | activity at 1 µM [3, 7] | activity at 1 µM [3, 8] | activity at 1 µM [3, 9] | activity at 3 µM [3, 10] | activity at 3 µM [3, 11] | activity at 3 µM [3, 12] | viability at 48 h, 1 µM (in vitro [4]; [13]) | viability at 48 h, 3 µM (in vitro [4]; [13]) | HepG2 1uM growth rep1 (HepG2-A16-CD81EGFP cells; average of 2 wells) | HepG2 1uM growth rep2 (HepG2-A16-CD81EGFP cells; average of 2 wells) | HepG2 3uM growth rep1 (HepG2-A16-CD81EGFP cells; average of 2 wells) | HepG2 3uM growth rep2 (HepG2-A16-CD81EGFP cells; average of 2 wells) | activity at 1 µM [3, 14] | activity at 1 µM [3, 15] | activity at 3 µM [3, 16] | activity at 3 µM [3, 17] | other results
1 | COc1ccc(CN2CCCn3nc(C)c(-c4ccccc4Oc4ccccc4)c32)cc1O [NCGC00420291-01] | 99.76% | -4.3643 M | 43.2 µM | 9.44 µM | 77.1% | 79.5% | 133% | 83.6% | 59.5% | 87.2% | 101% | 105% |  |  |  |  |  |  |  |  | HepG2 viability signal, 3 uM, repeat 2 (HepG2-A16-CD81EGFP cells; [6]): 103.00%
2 | O=C(Nc1ccccc1)OC[C@H]1C[C@@H]2CCN1C[C@@H]2c1cc(C2CCCC2)nc(-c2ccncc2)n1 [NCGC00421344-01] |  | -4.4643 M | 34.3 µM | 1.68 µM | 68.5% | 91.8% | 72.8% | 27.1% | 71.6% | 77.7% |  |  |  |  |  |  |  |  |  |  | HepG2 viability signal, 1 uM, repeat 2 (HepG2-A16-CD81EGFP cells; human, 48 h, 1 µM): 103.60%; HepG2 viability signal, 3 uM, repeat 2 (HepG2-A16-CD81EGFP cells; human, 48 h, 3 µM): 105.28%; viability at 48 h, 1 µM (in vitro [4]): 101%; viability at 48 h, 3 µM (in vitro [4]): 105%
3 | CC1(C)Cc2ccccc2C2=NNC(=O)C2=N1 [MLS000709658-01] |  | -4.4643 M | 34.3 µM | 3.35 µM |  |  |  |  |  |  |  |  | 98% | 96% | 90% | 99% | 117% | 83% | 68% | 64% | 
4 | CN1CCN(c2ccc3ncc(Nc4ccccc4-c4ccccc4)n3n2)CC1 [NCGC00412547-01] | 97.22% | -4.3528 M | 44.4 µM | 0.863 µM | 101% | 104% | 100% | 50.6% | 88.8% | 92.9% | 96% | 97.1% |  |  |  |  |  |  |  |  | HepG2 viability signal, 3 uM, repeat 2 (HepG2-A16-CD81EGFP cells; [6]): 96.99%
5 | N#Cc1ccc(NC(=O)Nc2ccc(Cl)cc2)cc1 [MLS000104525-01] |  | -4.4643 M | 34.3 µM | 5.31 µM |  |  |  |  |  |  |  |  | 95% | 87% | 72% | 84% | 86% | 61% | 6.45% | 7% | 
6 | Br.CCOC(=O)c1c(CSC(=N)N)n(-c2ccc(Br)cc2)c2cc(Br)c(OC(C)=O)cc12 [MLS000595146-01] |  | -4.3143 M | 48.5 µM |  |  |  |  |  |  |  | 105% | 104% |  |  |  |  |  |  |  |  | HepG2 viability, % of control (HepG2-A16-CD81EGFP cells): 100% and 96%
7 | CCOc1cccc(CNCCc2c(C)[nH]c3ccc(OC(F)(F)F)cc23)c1O.O=C(O)C(=O)O [MLS001198351-01] |  | -4.4643 M | 34.3 µM | 2.37 µM |  |  |  |  |  |  |  |  | 97% | 92% | 70% | 71% | 46% | 47% | 9% | 16% | 
8 | Cc1cccc(-c2cc3nc(C)c(C)c(NCCCn4ccnc4)n3n2)c1 [MLS000529525-01] |  | -4.3143 M | 48.5 µM | 5.31 µM |  |  |  |  |  |  |  |  | 101% | 92% | 82% | 93% | 138% | 123% | 94% | 144% | 
9 | COc1ccccc1CNCC(O)Cn1c2ccccc2c2ccccc21 (stereo not drawn) [MLS000391556-01] |  | -4.4643 M | 34.3 µM |  |  |  |  |  |  |  |  |  | 97% | 92% | 92% | 93% | 115% | 98% | 107% | 96% | 
10 | C/C(=N\Nc1ncnc2sc(C)c(C)c12)c1ccccn1 [MLS001176565-01] |  | -6.3143 M | 0.485 µM | 1.33 µM |  |  |  |  |  |  |  |  | 55% | 50% | 36% | 44% | 11% | 8% | 6% | 5% | 
11 | CN(C)CCCNc1cc(N2CCN(C3CCCCC3)CC2)c2noc3c2c1C(=O)c1ccccc1-3 [NCGC00111069-01] | 102.79% | -4.4143 M | 38.5 µM | 1.33 µM | 66% | 110% | 109% | 57.2% | 71.6% | 75.6% | 96.3% | 93.8% |  |  |  |  |  |  |  |  | HepG2 viability signal, 3 uM, repeat 2 (HepG2-A16-CD81EGFP cells; [6]): 99.71%
12 | NS(=O)(=O)c1ccc(N/N=C/c2cn(-c3ccccc3)nc2-c2cccs2)cc1 [MLS000393371-01] |  | -4.6643 M | 21.7 µM | 0.335 µM |  |  |  |  |  |  |  |  | 92% | 91% | 94% | 94% | 80% | 57% | 26% | 21% | 
13 | N=c1n(CCN2CCCCC2)c2ccccc2n1CC(O)COc1ccc(Cl)cc1Cl (stereo not drawn) [NCGC00100256-01] | 103.32% | -4.5143 M | 30.6 µM | 4.22 µM | 94.7% | 93.8% | 119% | 65.4% | 71% | 72.8% | 103% | 102% |  |  |  |  |  |  |  |  | HepG2 viability signal, 3 uM, repeat 2 (HepG2-A16-CD81EGFP cells; [6]): 101.25%
14 | CCCCCn1c(=N)n(CC(O)COc2cccc(C)c2)c2ccccc21 (stereo not drawn) [NCGC00101833-01] | 100.99% | -4.3643 M | 43.2 µM | 2.11 µM | 93.7% | 90.1% | 79.6% | 67.5% | 71% | 96.1% | 98.8% | 94.8% |  |  |  |  |  |  |  |  | HepG2 viability signal, 3 uM, repeat 2 (HepG2-A16-CD81EGFP cells; [6]): 100.64%
